Legend:
[1] = target: T1, Tyrosine-protein kinase BTK (Homo sapiens, UniProt Q06187); experiment: Binding affinity to full-length wild-type human BTK expressed in mammalian system assessed as control score at 1 uM by KINOMEScan assay
[2] = target: T2, Epidermal growth factor receptor (Homo sapiens, UniProt P00533); experiment: Inhibition of wild-type EGFR in human A549 cells assessed as growth inhibition after 72 hrs by CellTiter-Glo assay; type: cell-based; conditions: a549, 72 h
[3] = target: Epidermal growth factor receptor (Homo sapiens, UniProt P00533, EX19DEL); experiment: Inhibition of EGFR exon 19 deletion mutant in human HCC827 cells assessed as reduction in ERK phosphorylation at Thr202/Tyr204 measured after 4 hrs by Western blot analysis; type: cell-based
[4] = target: T2, Epidermal growth factor receptor; experiment: Inhibition of wild-type EGFR in human NCI-H2122 cells assessed as reduction in 4EBP1 phosphorylation at Thr37/46 site at 0.01 to 3 uM by Western blot analysis; type: cell-based
[5] = target: Epidermal growth factor receptor (Homo sapiens, UniProt P00533, L858R/T790M); experiment: Inhibition of EGFR T790M/L858R mutant (unknown origin) autophosphorylation at Y1068 expressed in mouse BAF3 cells after 4 hrs by Western blot analysis; type: cell-based
[6] = Half life in Sprague-Dawley rat plasma at 10 mg/kg, po after 24 hrs; type: ADME, organism-based
[7] = MRT (0 to infinity) in Sprague-Dawley rat plasma at 10 mg/kg, po after 24 hrs; type: ADME, organism-based
[8] = target: Cytoplasmic tyrosine-protein kinase BMX (Homo sapiens) (UniProt P51813); experiment: Binding affinity to wild-type human BMX expressed in bacterial system assessed as control score at 1 uM by KINOMEScan assay
Rattus norvegicus [9] = experiment: AUC (0 to t) in Sprague-Dawley rat plasma at 1 mg/kg, iv after 8 hrs; type: ADME, organism-based; set-up: time < 8 hr, dose 1 mg/kg, route intravenous; conditions: in vivo
[10] = Half life in Sprague-Dawley rat plasma at 1 mg/kg, iv after 8 hrs; type: ADME, organism-based
[11] = target: T2, Epidermal growth factor receptor; experiment: Inhibition of wild type EGFR autophosphorylation at Y1068 in human A549 cells at 0.01 to 3 uM after 4 hrs by Western blot analysis; type: cell-based; conditions: a549, 4 h
[12] = target: T1, Tyrosine-protein kinase BTK; experiment: Inhibition of full-length recombinant human His-tagged BTK cytoplasmic domain expressed in baculovirus by Z'-LYTE assay
[13] = target: T3, Receptor tyrosine-protein kinase erbB-2 (Homo sapiens, UniProt P04626); experiment: Inhibition of recombinant human […] ERBB2 cytoplasmic domain (676 to 1255 residues) expressed in baculovirus by Z'-LYTE assay
[14] = target: T2, Epidermal growth factor receptor; experiment: Inhibition of wild-type EGFR in human NCI-H2122 cells assessed as reduction in P70S6K phosphorylation at Thr389 site at 0.01 to 3 uM by Western blot analysis; type: cell-based
[15] = Oral bioavailability in Sprague-Dawley rat at 10 mg/kg after 24 hrs; type: ADME, organism-based; conditions: in vivo
[16] = target: T2, Epidermal growth factor receptor; experiment: Inhibition of wild-type EGFR in human NCI-H2122 cells assessed as reduction in STAT3 phosphorylation at Y705 site at 0.01 to 3 uM by Western blot analysis; type: cell-based
[17] = target: Cytoplasmic tyrosine-protein kinase BMX (Homo sapiens, UniProt P51813); experiment: Inhibition of full-length recombinant human His-tagged BMX expressed in baculovirus by Z'-LYTE assay
[18] = target: T2, Epidermal growth factor receptor; experiment: Inhibition of wild-type EGFR in human NCI-H2122 cells assessed as reduction in Akt phosphorylation at 473 site at 0.01 to 3 uM by Western blot analysis; type: cell-based
[19] = target: Insulin receptor (Homo sapiens) (UniProt P06213); experiment: Inhibition of Tel-fused INSR (unknown origin) expressed in mouse BAF3 cells assessed as growth inhibition after 72 hrs by CellTiter-Glo assay; type: cell-based
[20] = target: T2, Epidermal growth factor receptor; experiment: Inhibition of Tel-fused EGFR (unknown origin) expressed in mouse BAF3 cells assessed as growth inhibition after 72 hrs by CellTiter-Glo assay; type: cell-based
[21] = target: T3, Receptor tyrosine-protein kinase erbB-2; experiment: Binding affinity to wild-type human ERBB2 expressed in mammalian system assessed as control score at 1 uM by KINOMEScan assay
[22] = target: Dual specificity mitogen-activated protein kinase kinase 1 (Homo sapiens, UniProt Q02750); experiment: Inhibition of full-length recombinant human His-tagged MEK1 expressed in baculovirus by Z'-LYTE assay
[23] = Tmax in Sprague-Dawley rat plasma at 10 mg/kg, po after 24 hrs; type: ADME, organism-based
[24] = Tmax in Sprague-Dawley rat plasma at 1 mg/kg, iv after 8 hrs; type: ADME, organism-based
[25] = target: Epidermal growth factor receptor (Homo sapiens, UniProt P00533, L858R); experiment: Inhibition of EGFR L858R mutant expressed in human H3255 cells assessed as reduction in ERK phosphorylation at Thr202/Tyr204 measured after 4 hrs by Western blot analysis; type: cell-based
[26] = target: Serine/threonine-protein kinase 10 (Homo sapiens) (UniProt O94804); experiment: Binding affinity to wild-type human LOK expressed in bacterial system assessed as control score at 1 uM by KINOMEScan assay
[27] = target: T2, Epidermal growth factor receptor; experiment: Inhibition of wild-type EGFR in human NCI-H2122 cells assessed as growth inhibition after 72 hrs by CellTiter-Glo assay; type: cell-based
Rattus norvegicus [28] = experiment: AUC (0 to infinity) in Sprague-Dawley rat plasma at 10 mg/kg, po after 24 hrs; type: ADME, organism-based; set-up: dose 10 mg/kg, time infinity, route oral; conditions: in vivo
[29] = target: Dual specificity mitogen-activated protein kinase kinase 5 (Homo sapiens) (UniProt Q13163); experiment: Binding affinity to wild-type human MEK5 expressed in mammalian system assessed as control score at 1 uM by KINOMEScan assay
Rattus norvegicus [30] = experiment: AUC (0 to infinity) in Sprague-Dawley rat plasma at 1 mg/kg, iv after 8 hrs; type: ADME, organism-based; set-up: dose 1 mg/kg, route intravenous, time infinity; conditions: in vivo
[31] = target: T2, Epidermal growth factor receptor; experiment: Inhibition of wild-type EGFR in human A549 cells assessed as reduction in ERK phosphorylation at Thr202/Tyr204 site at 0.01 to 3 uM by Western blot analysis; type: cell-based; conditions: a549, 3 µM
[32] = target: T4, Receptor tyrosine-protein kinase erbB-4 (Homo sapiens, UniProt Q15303); experiment: Binding affinity to wild-type human ERBB4 expressed in bacterial system assessed as control score at 1 uM by KINOMEScan assay
[33] = target: T4, Receptor tyrosine-protein kinase erbB-4; experiment: Inhibition of recombinant human N-terminal GST-tagged ERBB4 cytoplasmic domain (708 to 993 residues) expressed in baculovirus by Z'-LYTE assay
[34] = Apparent plasma clearance in Sprague-Dawley rat at 1 mg/kg, iv after 8 hrs; type: ADME, organism-based
[35] = MRT (0 to infinity) in Sprague-Dawley rat plasma at 1 mg/kg, iv after 8 hrs; type: ADME, organism-based
[36] = target: T2, Epidermal growth factor receptor; experiment: Inhibition of wild-type EGFR in human A549 cells assessed as reduction in eIF4E phosphorylation at Ser209 site at 0.01 to 3 uM by Western blot analysis; type: cell-based; conditions: a549, 3 µM
[37] = target: T2, Epidermal growth factor receptor; experiment: Inhibition of wild-type EGFR in human A549 cells assessed as reduction in P70S6K phosphorylation at Thr389 site at 0.01 to 3 uM by Western blot analysis; type: cell-based; conditions: a549, 3 µM

T2 sequence (P00533 whole entry): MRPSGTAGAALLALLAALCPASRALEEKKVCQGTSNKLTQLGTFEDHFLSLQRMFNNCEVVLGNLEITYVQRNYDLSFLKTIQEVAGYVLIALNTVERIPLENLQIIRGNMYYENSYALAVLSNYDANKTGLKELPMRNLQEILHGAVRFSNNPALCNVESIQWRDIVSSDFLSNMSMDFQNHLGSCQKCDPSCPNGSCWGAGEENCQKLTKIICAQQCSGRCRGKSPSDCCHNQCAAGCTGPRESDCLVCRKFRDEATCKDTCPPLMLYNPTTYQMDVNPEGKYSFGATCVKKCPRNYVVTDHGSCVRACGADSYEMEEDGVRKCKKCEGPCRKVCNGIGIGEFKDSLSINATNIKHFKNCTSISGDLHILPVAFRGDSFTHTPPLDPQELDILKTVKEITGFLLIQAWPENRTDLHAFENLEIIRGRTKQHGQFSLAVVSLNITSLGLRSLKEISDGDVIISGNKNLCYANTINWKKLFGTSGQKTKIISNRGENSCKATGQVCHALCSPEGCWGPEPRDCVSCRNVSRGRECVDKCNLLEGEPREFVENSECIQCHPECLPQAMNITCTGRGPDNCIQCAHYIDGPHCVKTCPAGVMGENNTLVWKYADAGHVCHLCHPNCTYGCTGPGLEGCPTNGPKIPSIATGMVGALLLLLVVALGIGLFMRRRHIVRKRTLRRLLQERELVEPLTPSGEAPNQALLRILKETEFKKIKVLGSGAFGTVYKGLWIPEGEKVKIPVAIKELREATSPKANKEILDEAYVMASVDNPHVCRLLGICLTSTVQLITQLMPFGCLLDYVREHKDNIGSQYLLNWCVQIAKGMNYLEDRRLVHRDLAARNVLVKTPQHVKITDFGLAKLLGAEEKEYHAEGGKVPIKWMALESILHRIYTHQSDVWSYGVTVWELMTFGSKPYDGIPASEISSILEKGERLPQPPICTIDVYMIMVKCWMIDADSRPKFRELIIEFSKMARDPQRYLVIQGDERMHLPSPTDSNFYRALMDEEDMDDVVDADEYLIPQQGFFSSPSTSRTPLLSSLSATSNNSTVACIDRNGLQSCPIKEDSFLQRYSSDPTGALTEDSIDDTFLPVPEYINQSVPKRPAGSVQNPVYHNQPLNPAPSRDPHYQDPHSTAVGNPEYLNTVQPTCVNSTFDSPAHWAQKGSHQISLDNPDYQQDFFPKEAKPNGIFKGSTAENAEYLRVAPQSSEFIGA
T3 sequence (P04626 whole entry, the tested form may be a part): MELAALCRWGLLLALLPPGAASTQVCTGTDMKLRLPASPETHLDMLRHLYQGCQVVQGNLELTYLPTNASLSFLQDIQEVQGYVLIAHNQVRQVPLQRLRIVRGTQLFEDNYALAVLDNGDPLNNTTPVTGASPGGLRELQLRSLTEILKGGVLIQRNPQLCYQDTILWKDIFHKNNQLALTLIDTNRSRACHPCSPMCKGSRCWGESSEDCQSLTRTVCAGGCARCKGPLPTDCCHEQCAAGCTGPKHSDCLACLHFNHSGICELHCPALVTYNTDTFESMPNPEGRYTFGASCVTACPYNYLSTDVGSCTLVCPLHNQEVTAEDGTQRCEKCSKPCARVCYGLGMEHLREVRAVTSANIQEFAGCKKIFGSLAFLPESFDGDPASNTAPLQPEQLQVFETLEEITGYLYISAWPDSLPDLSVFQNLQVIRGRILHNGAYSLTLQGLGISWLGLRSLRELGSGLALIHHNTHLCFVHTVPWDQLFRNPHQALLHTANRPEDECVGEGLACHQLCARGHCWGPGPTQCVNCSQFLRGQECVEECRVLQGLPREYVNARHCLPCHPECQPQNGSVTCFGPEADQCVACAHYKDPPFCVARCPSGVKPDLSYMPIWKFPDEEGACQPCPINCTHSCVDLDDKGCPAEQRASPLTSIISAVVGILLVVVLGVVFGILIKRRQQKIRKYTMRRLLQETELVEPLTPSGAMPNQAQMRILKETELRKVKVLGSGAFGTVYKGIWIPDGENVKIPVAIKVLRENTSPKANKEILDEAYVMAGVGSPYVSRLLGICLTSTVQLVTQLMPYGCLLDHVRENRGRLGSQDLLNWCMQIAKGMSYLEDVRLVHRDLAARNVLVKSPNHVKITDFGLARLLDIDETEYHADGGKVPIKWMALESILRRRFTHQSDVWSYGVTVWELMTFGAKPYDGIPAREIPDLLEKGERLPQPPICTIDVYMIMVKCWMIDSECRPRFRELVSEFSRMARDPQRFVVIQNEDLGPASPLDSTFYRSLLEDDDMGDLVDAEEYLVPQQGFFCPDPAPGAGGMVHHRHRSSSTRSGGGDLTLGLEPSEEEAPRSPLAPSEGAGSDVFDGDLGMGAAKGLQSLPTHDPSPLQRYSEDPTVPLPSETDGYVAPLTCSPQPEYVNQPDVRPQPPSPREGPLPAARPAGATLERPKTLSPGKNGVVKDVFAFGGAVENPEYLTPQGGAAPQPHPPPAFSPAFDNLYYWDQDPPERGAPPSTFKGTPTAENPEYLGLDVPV
T1 sequence (Q06187 whole entry): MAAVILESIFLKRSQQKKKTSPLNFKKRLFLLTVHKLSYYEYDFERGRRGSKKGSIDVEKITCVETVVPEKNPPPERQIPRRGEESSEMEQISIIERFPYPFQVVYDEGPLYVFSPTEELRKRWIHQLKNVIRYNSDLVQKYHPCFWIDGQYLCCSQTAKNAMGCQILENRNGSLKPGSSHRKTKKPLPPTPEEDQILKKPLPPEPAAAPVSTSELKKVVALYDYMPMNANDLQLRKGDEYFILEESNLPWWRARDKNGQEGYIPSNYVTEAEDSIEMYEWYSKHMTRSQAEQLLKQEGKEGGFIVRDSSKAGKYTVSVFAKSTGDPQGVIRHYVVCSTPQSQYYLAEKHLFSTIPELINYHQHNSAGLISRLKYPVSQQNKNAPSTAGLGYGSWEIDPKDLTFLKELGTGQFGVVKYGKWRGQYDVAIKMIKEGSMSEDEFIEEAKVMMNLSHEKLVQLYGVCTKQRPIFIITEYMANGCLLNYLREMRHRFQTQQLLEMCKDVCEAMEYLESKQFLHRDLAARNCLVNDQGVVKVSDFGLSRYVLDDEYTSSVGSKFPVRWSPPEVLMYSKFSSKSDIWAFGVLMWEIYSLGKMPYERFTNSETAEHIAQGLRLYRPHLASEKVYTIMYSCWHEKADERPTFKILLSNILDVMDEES
T4 sequence (Q15303 whole entry, the tested form may be a part): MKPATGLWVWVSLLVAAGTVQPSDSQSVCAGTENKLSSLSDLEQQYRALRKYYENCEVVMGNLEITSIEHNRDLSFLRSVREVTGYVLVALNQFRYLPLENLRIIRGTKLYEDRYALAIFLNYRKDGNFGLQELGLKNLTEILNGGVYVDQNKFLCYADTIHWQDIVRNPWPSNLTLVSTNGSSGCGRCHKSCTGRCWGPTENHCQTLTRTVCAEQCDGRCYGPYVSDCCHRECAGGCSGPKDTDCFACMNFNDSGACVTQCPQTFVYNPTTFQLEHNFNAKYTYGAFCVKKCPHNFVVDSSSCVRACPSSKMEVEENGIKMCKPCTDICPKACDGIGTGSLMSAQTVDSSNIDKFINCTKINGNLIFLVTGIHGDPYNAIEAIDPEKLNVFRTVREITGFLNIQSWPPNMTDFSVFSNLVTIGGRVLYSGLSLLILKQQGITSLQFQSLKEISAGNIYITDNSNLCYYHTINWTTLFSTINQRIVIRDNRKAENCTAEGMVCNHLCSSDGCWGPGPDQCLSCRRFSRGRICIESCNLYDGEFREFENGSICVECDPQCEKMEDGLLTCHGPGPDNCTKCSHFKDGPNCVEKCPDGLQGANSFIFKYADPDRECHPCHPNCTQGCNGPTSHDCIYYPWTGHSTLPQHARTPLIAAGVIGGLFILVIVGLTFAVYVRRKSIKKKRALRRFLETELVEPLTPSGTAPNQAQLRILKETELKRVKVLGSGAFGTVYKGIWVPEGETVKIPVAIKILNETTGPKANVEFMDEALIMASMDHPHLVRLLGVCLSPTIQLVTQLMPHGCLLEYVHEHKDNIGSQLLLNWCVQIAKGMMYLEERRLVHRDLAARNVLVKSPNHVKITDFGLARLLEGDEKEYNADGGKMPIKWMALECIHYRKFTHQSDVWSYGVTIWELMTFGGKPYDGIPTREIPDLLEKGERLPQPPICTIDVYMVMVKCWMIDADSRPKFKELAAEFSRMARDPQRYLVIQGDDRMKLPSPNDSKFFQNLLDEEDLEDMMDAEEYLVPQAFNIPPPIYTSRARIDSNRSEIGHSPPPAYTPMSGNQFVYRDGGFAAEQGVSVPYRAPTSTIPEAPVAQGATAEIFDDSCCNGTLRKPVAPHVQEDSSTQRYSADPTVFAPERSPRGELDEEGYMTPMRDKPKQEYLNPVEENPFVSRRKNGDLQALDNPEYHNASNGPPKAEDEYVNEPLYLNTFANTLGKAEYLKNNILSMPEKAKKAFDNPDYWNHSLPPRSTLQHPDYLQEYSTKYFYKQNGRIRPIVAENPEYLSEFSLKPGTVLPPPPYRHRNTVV
Chain of Dual specificity mitogen-activated protein kinase kinase 5 (Homo sapiens) (Q13163 whole entry): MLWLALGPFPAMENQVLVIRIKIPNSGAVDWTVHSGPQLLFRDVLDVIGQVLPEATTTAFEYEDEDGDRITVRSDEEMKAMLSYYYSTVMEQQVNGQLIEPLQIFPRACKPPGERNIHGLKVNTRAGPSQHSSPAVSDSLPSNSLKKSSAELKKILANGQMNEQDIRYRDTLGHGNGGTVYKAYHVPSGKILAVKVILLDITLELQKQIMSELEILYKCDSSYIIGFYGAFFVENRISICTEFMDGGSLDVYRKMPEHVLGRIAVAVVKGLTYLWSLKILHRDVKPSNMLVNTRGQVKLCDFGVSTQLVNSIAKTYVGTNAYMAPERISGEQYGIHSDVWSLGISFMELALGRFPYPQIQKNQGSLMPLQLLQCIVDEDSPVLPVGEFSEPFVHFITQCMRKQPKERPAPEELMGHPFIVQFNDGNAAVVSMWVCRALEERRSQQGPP

C=CC(=O)N1CCC[C@@H](n2nc(-c3ccc(OCc4ccccn4)c(Cl)c3)c3c(N)ncnc32)C1 showed an Activity [1] of 0.05%, a GI50 [2] of over 10000 nM and an EC50 [3] of under 10 nM. The “inhibition (INH)” value [4] was “Not Active”, the EC50 [5] was 7 nM and the half-life [6] was 117 min. For the same compound, the MRT inf [7] was 153 min, the Activity [8] was 0.9% and the AUCt (Rattus norvegicus [9]) was 404 to 2340 ng/mL/h. For the same compound, the half-life [10] was 18 min, the “inhibition (INH)” value [11] was “Active” and the IC50 [12] was 24.5 nM. For the same compound, the IC50 [13] was 8.1 nM, the “inhibition (INH)” value [14] was “Not Active” and the bioavailability [15] was 10.3%. For the same compound, the “inhibition (INH)” value [16] was “Not Active”, the IC50 [17] was 111 nM and the “inhibition (INH)” value [18] was “Not Active”. It also gave a GI50 [19] of 3500 nM, a GI50 [20] of 2000 nM and an Activity [21] of 0%. The IC50 [22] was 161 nM, the Tmax [23] was 34.8 min and the Tmax [24] was 1.02 min. The EC50 [25] was under 10 nM, the Activity [26] was 0.95% and the GI50 [27] was over 10000 nM. For the same compound, the AUC (Rattus norvegicus [28]) was 441 ng·h/mL, the Activity [29] was 0.1% and the AUC (Rattus norvegicus [30]) was 405 ng·h/mL. The “inhibition (INH)” value [31] was “Not Active”, the Activity [32] was 0% and the IC50 [33] was 3.2 nM. The clearance [34] was 41.3 mL/min/kg, the MRT inf [35] was 12.6 min and the “inhibition (INH)” value [36] was “Not Active”. The “inhibition (INH)” value [37] was “Not Active”.

— ChEMBL document CHEMBL4049404, “Discovery of (R)-1-(3-(4-Amino-3-(3-chloro-4-(pyridin-2-ylmethoxy)phenyl)-1H-pyrazolo[3,4-d]pyrimidin-1-yl)piperidin-1-yl)prop-2-en-1-one (CHMFL-EGFR-202) as a Novel Irreversible EGFR Mutant Kinase Inhibitor with a Distinct Binding Mode” (J Med Chem, 2017)
